The values that follow come from patent publication US6894185B2, “Substituted chiral allosteric hemoglobin modifiers” (Allós Therapeutics, Inc., priority 1999, dated 2005).

Series [1] has as its target T1, hemoglobin (Homo sapiens, UniProt P68871+P69905).
T1 construct: The whole blood samples were collected in heparinized tubes from healthy volunteers; from tissue; host or cells: human whole blood (heparinized) from healthy volunteers
Kind of series: In vitro whole blood studies (multi-point tonometry and blood gas analysis). The series is classed as cell-based. The note with it: for ΔP50 ± S.D. (P50 effector − P50control) / P50e (P50 value in the presence of the effector): Table VI, 2.5 mM Hb, 5.0 mM effector; for P50e (P50 value in the presence of the effector): single runs, DMSO stock. As to the method:
(§1) Structure-allosteric activity relationships were determined from the synthetic chiral effectors comparing the shift in the oxygen binding curve of Hb solutions using a Hemox-Analyzer. In vitro biological activity testing in the presence of plasma proteins was also performed on selected enantiomers and racemates (multi-point tonometry and blood gas analysis) to screen for candidates with potential clinical use. SAR studies compared the degree in shift in P50 values, i.e., the partial pressure of molecular oxygen necessary to half-saturate hemoglobin. An effector that decreases Hb oxygen affinity increases the P50 value relative to the control. Thus, the activity or potency of each analog could be expressed by the ratio P50 (effector)/P50(control). Tables and II and III summarize the p50 values obtained using human whole blood, while Tables IV and V summarize the P50 and the Hill coefficient values (n50) at half-saturation obtained using Hemox-analyzer. The slope of the log of the oxygen binding curves is known as the Hill coefficient. The Hill coefficient measures the degree of cooperativity in binding for an allosteric protein, the normal range for human blood is 2.7-3.2. Table VI presents the results from the whole blood studies given as a ΔP50 and Hill coefficient (n50) values for the enantiomers and racemates.
The whole blood samples were collected in heparinized tubes from healthy volunteers and stored over ice. The sodium salts of the compounds were prepared as described earlier. A 200 mM stock solution of the effector was prepared in DMSO. A 5.0 mM test solution was prepared from 50 μL of the 200 mM test solution and 1950 μL of whole blood. The blood samples were incubated in IL 237 tonometers (Instrumentation Laboratories, Inc. Lexington, Mass.) for approximately 10-12 min at 37° C. and equilibrated at three separate concentrations of O2 (20%, 40%, and 60%). After equilibration at each concentration of O2, a sample was removed via syringe and aspirated into a IL 1420 Automated Blood Gas Analyzer (Instrumentation Laboratories, Inc. Lexington, Mass.) and a IL 482 and IL 682 Co-oximeter (Instrumentation Laboratories, Inc. Lexington, Mass.) to determine the pH, pCO2, pO2 and the hemoglobin oxygen saturation values (sO2), respectively. The measured values for pO2 and sO2 at each oxygen saturation level were then subjected to a non-linear regression analysis using the program Scientist (Micromath, Salt Lake City, Utah) to calculate the P50 and Hill coefficient values.

The target in series [2] is T2, purified stripped human adult hemoglobin (Homo sapiens, UniProt P68871+P69905).
T2 construct: using purified stripped human adult hemoglobin as described previously; from tissue
Kind of series: Hemoglobin solution oxygen equilibrium studies (HEMOX-analyzer). Type of series: biochemical. The following applies: for n50 (Hill coefficient at 50% saturation): n50 control 2.7; for P50e/P50c: ratio to P50 control with no effector (5.0 mmHg). As to the method:
as §1, with “Tables and II and III summarize the p50 values obtained using human whole blood, while Tables IV and V summarize the P50 and the Hill coefficient values (n50) at half-saturation obtained using Hemox-analyzer.” left out, “2.7-3.2.” for “2.7-3.2. Table VI presents the results from the whole blood studies given as a ΔP50 and Hill coefficient (n50) values for the enantiomers and racemates.”
The effectors were prepared as 10 mM stock solutions in 100 mM NaCl bis-Tris buffer, pH 7.2. After the addition of an excess of NaHCO3, the solution was warmed to 60° C. and stirred for several hours. The solutions were back titrated carefully to pH 7.2 at 25° C. prior to use. Oxygen equilibrium measurements were performed with the HEMOX-analyzer (TCS Medical products, Southampton, Pa.) using purified stripped human adult hemoglobin as described previously. 4 mL of buffer, 100 mM NaCl, 50 mM bis-Tris at pH 7.2, is added to a cuvette in the HEMOX, followed by 200 μL of the 10 mM effector stock solution. Hemoglobin is then added to achieve a final Hb concentration of […] on heme basis. Catalase (20 μg/mL) and 50 mM EDTA were added to limit oxidation of the hemes. […] The saturation of hemoglobin was determined spectrophotometrically with a dual wavelength spectrophotometer (577 nm and 586.2 nm). The solution was stirred constantly during the 45-60 min recordings. The P50 and n50 values were calculated by linear regression analysis from data points comprised between 40 and 60% oxygen saturation.

Series [3] deals with T2, purified stripped human adult hemoglobin. The series is described as above. The following applies: 0.5 mM effector, 100 mM bis-Tris buffer, pH 7.2. Type of series: biochemical.
Where [4] appears, read: Table IV, 0.5 mM effector, pH 7.2.

Several values for one entry are separate records, joined by “and”; a condition that tells them apart may be missing. Equal entries are not always repeated.

T1 sequence (P69905 2-142 limits assumed): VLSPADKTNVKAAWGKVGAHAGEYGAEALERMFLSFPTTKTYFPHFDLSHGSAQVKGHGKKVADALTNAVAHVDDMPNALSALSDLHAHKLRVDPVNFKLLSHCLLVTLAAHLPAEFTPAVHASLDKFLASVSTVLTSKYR
T1 sequence (P68871 2-147 limits assumed): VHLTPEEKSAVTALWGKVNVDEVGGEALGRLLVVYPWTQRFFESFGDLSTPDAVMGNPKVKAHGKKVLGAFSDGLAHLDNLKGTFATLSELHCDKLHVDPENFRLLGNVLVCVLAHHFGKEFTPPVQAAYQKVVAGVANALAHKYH
T2 sequence (P69905 2-142 limits assumed): as the sequence (P69905 2-142 limits assumed) above
T2 sequence (P68871 2-147 limits assumed): as the sequence (P68871 2-147 limits assumed) above

`CC[C@H](C)[C@H](NC(=O)C1(Oc2ccc(CC(=O)Nc3cc(C)cc(C)c3)cc2)CCCC1)C(=O)O` [Compound 53, 1-[4-(((3,5-dimethylanilino)carbonyl)methyl)phenoxy]cyclopentanecarbonyl-L-isoleucine] had a melting point of 127 to 128 °C. Also, the “Whole Blood Δp50 mm Hg” value in series [1] (Table III) is reported as 13 mm Hg.
In turn, `Cc1cc(C)cc(NC(=O)Cc2ccc(OC3(C(=O)N[C@H](CC(C)C)C(=O)O)CCCC3)cc2)c1` [Compound 40, 1-[4-(((3,5-dimethylanilino)carbonyl)methyl)phenoxy]cyclopentanecarbonyl-D-leucine] came in with a melting point of 119 to 120 °C. Further, the “Whole Blood Δp50 mm Hg” value in series [1] (Table III) worked out at 40 mm Hg.
With `Cc1cc(C)cc(NC(=O)Cc2ccc(OC3(C(=O)N[C@H](Cc4c[nH]c5ccccc45)C(=O)O)CCCC3)cc2)c1` [Compound 46, 1-[4-(((3,5-dimethylanilino)carbonyl)methyl)phenoxy]cyclopentanecarbonyl-D-tryptophan], the melting point lay within 83 to 84 °C. Further, the “Whole Blood Δp50 mm Hg” value in series [1] (Table III) worked out at 20 mm Hg.
Compound `Cc1cc(C)cc(NC(=O)Cc2ccc(OC3(C(=O)N[C@@H](CC(C)C)C(=O)O)CCCC3)cc2)c1` [Compound 41, 1-[4-(((3,5-dimethylanilino)carbonyl)methyl)phenoxy]cyclopentanecarbonyl-L-leucine] gave a melting point of 119 to 120 °C. Further, the “Whole Blood Δp50 mm Hg” value in series [1] (Table III) was 15 mm Hg.
On to `Cc1cc(C)cc(NC(=O)Cc2ccc(OC3(C(=O)N[C@H](CO)C(=O)O)CCCC3)cc2)c1` [Compound 49, 1-[4-(((3,5-dimethylanilino)carbonyl)methyl)phenoxy]cyclopentanecarbonyl-D-serine], for which the melting point is 58 to 59 °C. The “Whole Blood Δp50 mm Hg” value in series [1] (Table III) is on record as 16 mm Hg.
With `Cc1cc(C)cc(NC(=O)Cc2ccc(OC3(C(=O)N[C@@H](Cc4ccc(O)cc4)C(=O)O)CCCC3)cc2)c1` [Compound 54, 1-[4-(((3,5-dimethylanilino)carbonyl)methyl)phenoxy]cyclopentanecarbonyl-L-tyrosine], the melting point was 74 to 75 °C. For the same compound, the “Whole Blood Δp50 mm Hg” value in series [1] (Table III) is given as 21 mm Hg.
`Cc1cc(C)cc(NC(=O)Cc2ccc(OC3(C(=O)N4CCC[C@H]4C(=O)O)CCCC3)cc2)c1` [Compound 56, 1-[4-(((3,5-dimethylanilino)carbonyl)methyl)phenoxy]cyclopentanecarbonyl-L-proline] yielded a melting point of 71 to 72 °C. Moreover, in series [1] (Table III), the “Whole Blood Δp50 mm Hg” value was found to be 17 mm Hg.
`CC1CCC(Oc2ccc(CC(=O)Nc3ccc4c(c3)CCC4)cc2)(C(=O)O)C1` (stereo not drawn) [Compound 5]: in series [2] (setting [4]), the “n50 (Hill coefficient at 50% saturation)” value is on record as 2.6 and the P50e/P50c came out at 2.5. The “Whole Blood Δp50 mm Hg” value in series [1] (Table II) is 12.7 mm Hg. Also, the “P50e (oxygen pressure at which Hb is 50% saturated with oxygen in the presence of the effector)” value in series [3] (Table IV) came to 13 mmHg.
The matching figures for `Cc1cc(Cl)cc(NC(=O)Cc2ccc(OC3(C(=O)O)CCC(C)C3)cc2)c1` (stereo not drawn) [Compound 9, 1-[4-[[(3-chloro-5-methylanilino)carbonyl]methyl]phenoxy]-3-methylcyclopentane carboxylic acid]: 2.4, 2.8, 15 mm Hg and 14 mmHg.
On to `Cc1cc(C)cc(NC(=O)Cc2ccc(OC3(C(=O)O)CCCC3)cc2)c1` [JP7, 1-[4-(((3,5-dimethylanilino)carbonyl)methyl)phenoxy]cyclopentanecarboxylic acid, reference compound], for which, in series [2] (setting [4]), the “n50 (Hill coefficient at 50% saturation)” value is 2.4 and the P50e/P50c is listed as 5.1. Moreover, in series [1], the “ΔP50 ± S.D. (P50 effector − P50control)” value is recorded as 42.3 ± 4.9 mmHg; the “P50e (P50 value in the presence of the effector)” value was 74.7 mmHg and 67.7 mmHg. Further, the “P50e (oxygen pressure at which Hb is 50% saturated with oxygen in the presence of the effector)” value in series [3] (Table IV) worked out at 26 mmHg.
As for `Cc1cc(C)cc(NC(=O)Cc2ccc(OC3(C(=O)N[C@H](C(=O)O)[C@@H](C)O)CCCC3)cc2)c1` [Compound 58, 1-[4-(((3,5-dimethylanilino)carbonyl)methyl)phenoxy]cyclopentanecarbonyl-L-threonine], the melting point is 64 to 66 °C. In addition, in series [1] (Table III), the “Whole Blood Δp50 mm Hg” value amounted to 13 mm Hg.
Take `CC1CCCC1(Oc1ccc(CC(=O)Nc2ccc3c(c2)CCC3)cc1)C(=O)O` (stereo not drawn) [Compound 7]: in series [2] (setting [4]), the “n50 (Hill coefficient at 50% saturation)” value came to 2.6 and the P50e/P50c stood at 2.8. The “Whole Blood Δp50 mm Hg” value in series [1] (Table II) is reported as 25.0 mm Hg. Besides, the “P50e (oxygen pressure at which Hb is 50% saturated with oxygen in the presence of the effector)” value in series [3] (Table IV) was found to be 14 mmHg.
The compound `Cc1cc(C)cc(NC(=O)Cc2ccc(OC3(C(=O)N[C@H](C(=O)O)C(C)C)CCCC3)cc2)c1` [Compound 43, 1-[4-(((3,5-dimethylanilino)carbonyl)methyl)phenoxy]cyclopentanecarbonyl-L-valine] had a melting point of 104 to 106 °C. Besides, the “Whole Blood Δp50 mm Hg” value in series [1] (Table III) was 30 mm Hg.
Turning to `Cc1cc(C)cc(NC(=O)Cc2ccc(OC3(C(=O)O)CCOCC3)cc2)c1` [Compound 4, 4-[4-[[(3,5-dimethylanilino)carbonyl]methyl]phenoxy]tetrahydro-2H-4-pyrancarboxylic acid], in series [2] (setting [4]), the “n50 (Hill coefficient at 50% saturation)” value was 2.4 and the P50e/P50c is 1.5. In series [1] (Table II), the “Whole Blood Δp50 mm Hg” value amounted to 17.8 mm Hg. In addition, in series [3] (Table IV), the “P50e (oxygen pressure at which Hb is 50% saturated with oxygen in the presence of the effector)” value worked out at 7.6 mmHg.
Regarding `Cc1cc(C)cc(NC(=O)Cc2ccc(OC(C)C(=O)O)cc2)c1` (single isomer, unassigned; (-)) [(−) 18, (−)-2-[4-[[(3,5-dimethylanilino)carbonyl]methyl]phenoxy]-propionic acid], in series [2] (Table V resolved enantiomers, 0.5 mM effector, pH 7.2), the “n50 (Hill coefficient at 50% saturation)” value worked out at 2.5. Besides, in series [2] (Table V resolved enantiomers), the P50e/P50c turned out to be 1.3. Further, in series [1], the “ΔP50 ± S.D. (P50 effector − P50control)” value is 12.3 ± 0.6 mmHg; the “P50e (P50 value in the presence of the effector)” value was 39.7 mmHg and 40.5 mmHg. In addition, in series [3] (Table V resolved enantiomers), the “P50e (oxygen pressure at which Hb is 50% saturated with oxygen in the presence of the effector)” value is given as 6.6 mmHg.
`COCC(C)(Oc1ccc(CC(=O)Nc2cc(C)cc(C)c2)cc1)C(=O)O` (stereo not drawn) [Compound 10, 2-[4-[[(3,5-dimethylanilino)carbonyl]methyl]phenoxy]-3-methoxy-2-methylpropanoic acid]: in series [2] (setting [4]), the “n50 (Hill coefficient at 50% saturation)” value is given as 2.4 and the P50e/P50c is listed as 1.7. Besides, the “Whole Blood Δp50 mm Hg” value in series [1] (Table II) came out at 24 mm Hg. For the same compound, the “P50e (oxygen pressure at which Hb is 50% saturated with oxygen in the presence of the effector)” value in series [3] (Table IV) is on record as 8.4 mmHg.

In general, melting point refers to the temperature, or range, at which the solid turns liquid.
